Results on 6 compounds are retold here after patent US7176163B1, “Pharmacological effect potentiators for pesticides” (Meija Seika Kaisha, Ltd., priority 2000, dated 2007).

Structures are written as SMILES.

Experiment [1] concerns cotyledon of cucumber (variety: Yotsuba). Kind of experiment: Microbicide (Benomyl) absorption enhancement by spraying jasmonic acids. It counts as in vivo. How it is done: In the present test, Benlate (registered trademark, manufactured by DuPont Corp., containing 50% of Benomyl as the main component) was used as microbicide. As a test material, cotyledon of cucumber (variety: Yotsuba) was used and absorption amount of the microbicide (hereinafter, referred to as “Benomyl absorption amount”) was measured. To the cucumber on day 10 after the seeding was uniformly sprayed 0.22 ml per individual of 0.1% Benlate solution (0.05% Benomyl containing solution) that contains methyl jasmonate (hereinafeter, abbreviated as “MeJA”) or n-propyl (2-pentyl-3-oxocyclopentyl)acetate, also named n-propyldihydrojasmonic acid (hereinafter, abbreviated as “PDJ”) and the cucumber was placed in a glass-made chamber. MeJA or PDJ was mixed to make 0.001 ppm, 0.01 ppm, 0.1 ppm, 1.0 ppm, or 5.0 ppm based on the Benlate solution amount and applied simultaneously. After sealing the lid of the chamber, the cucumber was cultivated in an air-conditioned room. As a control, similarly Benlate-treated cucumber seedlings were placed in a separate chamber and cultivated.
After two days of cultivation, the cotyledons were cut off and the surfaces of them were washed carefully with a neutral detergent. The cotyledons were ground and extracted with heating. The treatment of extraction solution and quantitation of Benomyl were carried out by high performance liquid chromatography referring to the quantitation method of Benomyl in Residual Pesticide Standards Handbook (Kagaku Kogyo Nippo, 1995, pp843-845) using 2-methylbenzimidazolecarbamate, which is a metabolite of Benomyl, as an indicator. […] As will be apparent from Table 1, enhancement of the absorption of Benomyl by application of MeJA or PDJ was observed.
Tests on microbicide absorption enhancement were performed in the same manner as in Test Example 1 using the following compounds. Common names and abbreviations of each compound are shown in the brackets. The compounds were synthesized in the same manner as in the examples in Japanese Patent Application Laid-open No. Hei 11-140022. • 1. […] (dihydrojasmonic acid: DJA) • 2. allyl (2-pentyl-3-oxocyclopentyl)acetate (allyl dihydrojasmonate: ADJ) • 3. 2-pentenyl (2-pentyl-3-oxocyclopentyl)acetate (dihydrojasmonic acid-2-pentenyl: PEDJ) • 4. 3-butenyl (2-pentyl-3-oxocyclopentyl)acetate (dihydrojasmonic acid-3-butenyl: BEDJ) • 5. 3-butynyl (2-pentyl-3-oxocyclopentyl)acetate (butynyl dihydrojasmonate : BYDJ)
Each compound was mixed so that it occupies 0.01 ppm based on the Benlate solution and given at the same time. Extraction and quantitation were practiced by the methods described in Test Example 1. The results are shown as relative values of Benomyl absorption amount in each lot to that of control. As a result, as will be apparent from Table 6, enhancement of absorption of Benomyl was confirmed.

The subject of the next experiment is cucumber powdery mildew. Nature of the experiment: Powdery mildew preventive effect improvement by methyl jasmonate fumigation. It counts as in vivo, Sphaeheca fuliginea. The following applies: MeJA fumigation 25 μl/m^3 after 0.1% Benlate spraying; infection on day 3; control lot (no fumigation) = 100. How it is done: Cucumber seedlings were cultivated in the same manner as in Test Example 2 and uniformly sprayed with 0.22 ml per individual of 0.1% Benlate solution (0.05% Benomyl containing solution). Thereafter, MeJA fumigation was performed as follows. MeJA Stock solution was charged in an open Petri dish (φ60 mm) to 25 μl/m^3, which was placed in a glass-made chamber and then sealed. On day 3 after the initiation of the fumigation, cucumber powdery mildew was infected in the same manner as in Test Example 3 and powdery mildew plaque number was counted. […] The control lot means a lot in which no MeJA fumigation was performed. Thus, it was confirmed that MeJA fumigation further improved the powdery mildew preventive effect of Benomyl.

The next experiment deals with cucumber seedlings. Nature of the experiment: Benomyl absorption enhancement by fumigation of methyl jasmonate. The experiment is classed as in vivo. As to conditions: MeJA fumigation 25 μl/m^3, natural diffusion in sealed chamber; seedlings sprayed with 0.1% Benlate solution. How it is done:
MeJA was applied as follows. MeJA Stock solution was charged in an open Petri dish (φ60 mm) to 25 μl/m^3, which was placed in a glass-made chamber and then sealed and allowed to naturally diffuse. Then, cucumber seedlings uniformly sprayed with 0.22 ml per individual of 0.1% Benlate solution (0.05% Benomyl containing solution) were placed and sealed. This was cultivated in an air-conditioned room. As a control cucumber seedlings that had been similarly treated with Benlate but not fumigated with MeJA were placed in a separate chamber and cultivated. Extraction was made in the same manner as in Test Example 1 and comparative quantitation in comparison with control lot was made.

For experiment [2], the system named is cucumber powdery mildew (Sphaeheca fuliginea). Kind of experiment: Powdery mildew preventive effect improvement by PDJ spraying. As to conditions: infection 3 days after application, plaques counted after 10 days, control lot (Benlate without PDJ) = 100. The experiment is classed as in vivo. As for the experimental part:
Cucumber seedlings were cultivated in the same manner as in Test Example 1 and uniformly sprayed with 0.22 ml per individual of 0.1% Benlate solution (0.05% Benomyl containing solution) mixed with PDJ in an amount of 0.01 ppm or 0.1 ppm based on the amount of Benlate solution. After 3 days from the application of Benlate solution, a spore suspension of cucumber powdery mildew (Sphaeheca fuliginea) prepared to 1.0×10^5 cells/ml was sprayed (0.2 ml per individual) on a first true leaf of each seedling and the seedlings were cultivated in a glass-made chamber. After 10 days, powdery mildew plagues were counted. […] Morbidity=(Average of powdery mildew plaque number on cucumber first true leaf in each treated lot)/(Average of powdery mildew plaque number on cucumber first true leaf in control lot)×100
Here, the control lot means a lot that is treated with a Benlate solution containing no PDJ. Thus, it was confirmed that PDJ spraying further increased the powdery mildew preventive effect of Benomyl.

For the next experiment, the system named is Poa annua. Nature of the experiment: Herbicidal effect enhancement by PDJ spraying. The following applies: Herbie liquid diluted 1/1000 plus PDJ 0.01 ppm; sprayed 5 ml/15 individuals; dry weight of above-ground part after 2 weeks. It counts as in vivo. How it is done: Seeds of Poa annua were sown on commercially available cultivation soil for raising seedlings and after about 2 weeks of cultivation, seedlings of about 6 cm in height were obtained. For each lots, tests were performed in 5 series each with 3 individuals. The herbicide used was Herbie liquid (registered trademark of Meiji Seika Kaisha Limited, 18% Bialaphos containing solution) diluted to 1/1000. PDJ was used as a pharmacological action enhancer and this was added in an amount of 0.01 ppm based on the liquid amount of the herbicide. Application to the plant body was performed by spraying in an amount of 5 ml/15 individuals. After 2 weeks from the application, the dry weight of above-ground part was measured and mortality was calculated in accordance with the following equation and the effect was compared. […] Wilting Mortality={1−(growth amount of applied lot/growth amount of non-applied lot)}×100

Where [3] appears, read: Test Example 6: 0.01 ppm based on the Benlate solution, given at the same time.
The mark [4] stands for this setting: 0.001 ppm in 0.1% Benlate solution, sprayed simultaneously, cucumber cotyledons after two days.
[5] abbreviates: 0.01 ppm in 0.1% Benlate solution, sprayed simultaneously, cucumber cotyledons after two days.
[6] abbreviates: 0.1 ppm in 0.1% Benlate solution, sprayed simultaneously, cucumber cotyledons after two days.
Setting [7] is: 1.0 ppm in 0.1% Benlate solution, sprayed simultaneously, cucumber cotyledons after two days.

`C=CCOC(=O)CC1CCC(=O)C1CCCCC` (stereo not drawn) [ADJ, allyl (2-pentyl-3-oxocyclopentyl)acetate]: the “Relative value (%) of Benomyl absorption amount to that of control lot” value (“Relative value (%)” below) in experiment [1] (setting [3]) turned out to be 145%.

Take `C=CCCOC(=O)CC1CCC(=O)C1CCCCC` (stereo not drawn) [BEDJ, 3-butenyl (2-pentyl-3-oxocyclopentyl)acetate]: the “Relative value (%)” value in experiment [1] (setting [3]) is reported as 155%.

On to `C#CCCOC(=O)CC1CCC(=O)C1CCCCC` (stereo not drawn) [BYDJ, 3-butynyl (2-pentyl-3-oxocyclopentyl)acetate], for which the “Relative value (%)” value in experiment [1] (setting [3]) came to 130%.

In the case of `CC/C=C\CC1C(=O)CCC1CC(=O)OC` (stereo not drawn) [MeJA], in the experiment with cucumber powdery mildew, the “Powdery Mildew Morbidity” value is on record as 76. Also, the “Relative value (%)” value in experiment [1] (setting [4]) is 96%; in experiment [1] (setting [5]), 124%; in experiment [1] (setting [6]), 127%; in experiment [1] (setting [7]) it was 142%; in experiment [1] (5.0 ppm in 0.1% Benlate solution, sprayed simultaneously, cucumber cotyledons after two days) it was 113%; in the experiment with cucumber seedlings it was 144%.

For the compound `CCCCCC1C(=O)CCC1CC(=O)OCCC` (stereo not drawn) [PDJ, n-propyl (2-pentyl-3-oxocyclopentyl)acetate], the “Powdery Mildew Morbidity” value in experiment [2] (PDJ 0.01 ppm in 0.1% Benlate solution) amounted to 70; in experiment [2] (PDJ 0.1 ppm in 0.1% Benlate solution), 88. In addition, the “Relative value (%)” value in experiment [1] (setting [4]) is reported as 103%; in experiment [1] (setting [5]) it was 136%; in experiment [1] (setting [6]), 118%; in experiment [1] (setting [7]), 110%. The Wilting Mortality with Poa annua is 81.2%.

`CCC=CCOC(=O)CC1CCC(=O)C1CCCCC` (stereo not drawn) [PEDJ, 2-pentenyl (2-pentyl-3-oxocyclopentyl)acetate]: in experiment [1] (setting [3]), the “Relative value (%)” value was determined as 130%.
